We go through 4 compounds from patent publication US11034650B2, “Compounds useful for treating a Mannheimia haemolytica or Histophilus somni infection” (Intervet Inc., priority 2016, dated 2021).

≈ marks a conversion by molar mass, not a printed value.

The first assay concerns Pasteurella multocida PM 10775 (080130003051, BRD field isolate). The experiment in a line: MIC, broth-microdilution (CLSI VET01-A4), strain PM 10775. Type of assay: cell-based. The conditions noted are these: Pasteurella multocida strain PM 10775, broth-microdilution; unit assumed. The method in brief:
(§1)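 Serial twofold dilutions; unaided-eye turbidity scoring; lowest clear well = MIC.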
`COc1ccc(CNCc2ccc(C#Cc3ccc(C(=O)N[C@@H](C(C)=O)C(=O)NO)cc3)cc2)cc1` [Compound 401] yielded an MIC PM 10775 of 1.6 µg/mL (≈ 3.3 µM).
Consider `CC(C)([C@H](NC(=O)c1ccc(C#Cc2ccc(CNC3CCCC3)cc2)cc1)C(=O)NO)S(C)(=O)=O` [Compound 264], for which the MIC PM 10775 is ≤ 0.1 µg/mL.
Regarding `CC(=O)[C@H](NC(=O)c1ccc(C#Cc2ccc(CNC3CC3)cc2)cc1)C(=O)NO` [Compound 396], the MIC PM 10775 was found to be 0.8 µg/mL (≈ 1.97 µM).
In the case of `CC(C)(O)[C@H](NC(=O)c1ccc(C#Cc2ccc(CN3CCOCC3)s2)cc1)C(=O)NO` [Compound 293], the MIC PM 10775 was ≤ 0.1 µg/mL.

A further assay relates to Mannheimia haemolytica MH 13093 (XB0472-6014.1, BRD field isolate). The experiment in a line: MIC, broth-microdilution (CLSI VET01-A4), strain MH 13093. Type of assay: cell-based. The conditions noted are these: Mannheimia haemolytica strain MH 13093, broth-microdilution; unit assumed. Put shortly:
as §1
`COc1ccc(CNCc2ccc(C#Cc3ccc(C(=O)N[C@@H](C(C)=O)C(=O)NO)cc3)cc2)cc1` [Compound 401] yielded an MIC MH 13093 of 1.6 µg/mL (≈ 3.3 µM).
Compound `CC(C)([C@H](NC(=O)c1ccc(C#Cc2ccc(CNC3CCCC3)cc2)cc1)C(=O)NO)S(C)(=O)=O` [Compound 264] gave an MIC MH 13093 of 6.3 µg/mL (≈ 12.3 µM).
The compound `CC(=O)[C@H](NC(=O)c1ccc(C#Cc2ccc(CNC3CC3)cc2)cc1)C(=O)NO` [Compound 396] displayed an MIC MH 13093 of 3.1 µg/mL (≈ 7.65 µM).
Same read-out and setting: to `CC(C)(O)[C@H](NC(=O)c1ccc(C#Cc2ccc(CN3CCOCC3)s2)cc1)C(=O)NO` [Compound 293] belongs 0.8 µg/mL (≈ 1.75 µM).

Another assay relates to Mannheimia haemolytica MH 6357 (M7/2, reference strain, cattle infection strain). Briefly: MIC, broth-microdilution (CLSI VET01-A4), strain MH 6357. Type of assay: cell-based. The conditions noted are these: Mannheimia haemolytica strain MH 6357, broth-microdilution; unit assumed. The method in brief: as §1
`COc1ccc(CNCc2ccc(C#Cc3ccc(C(=O)N[C@@H](C(C)=O)C(=O)NO)cc3)cc2)cc1` [Compound 401] registered an MIC MH 6357 of 1.6 µg/mL (≈ 3.3 µM).
With `CC(C)([C@H](NC(=O)c1ccc(C#Cc2ccc(CNC3CCCC3)cc2)cc1)C(=O)NO)S(C)(=O)=O` [Compound 264], the MIC MH 6357 stood at 12.5 µg/mL (≈ 24.4 µM).
On the same count and under the same terms, to `CC(=O)[C@H](NC(=O)c1ccc(C#Cc2ccc(CNC3CC3)cc2)cc1)C(=O)NO` [Compound 396] belongs 1.6 µg/mL (≈ 3.95 µM); to `CC(C)(O)[C@H](NC(=O)c1ccc(C#Cc2ccc(CN3CCOCC3)s2)cc1)C(=O)NO` [Compound 293], 0.4 µg/mL (≈ 0.874 µM).

A further assay relates to Mannheimia haemolytica MH 10720 (154, BRD field isolate). Briefly: MIC, broth-microdilution (CLSI VET01-A4), strain MH 10720. Type of assay: cell-based. The conditions noted are these: Mannheimia haemolytica strain MH 10720, broth-microdilution; unit assumed. Put shortly: as §1
Background: Broth dilution looks for growth in wells or tubes with falling amounts of substance.
Consider `COc1ccc(CNCc2ccc(C#Cc3ccc(C(=O)N[C@@H](C(C)=O)C(=O)NO)cc3)cc2)cc1` [Compound 401], for which the MIC MH 10720 came to 3.1 µg/mL (≈ 6.38 µM).
In the case of `CC(C)([C@H](NC(=O)c1ccc(C#Cc2ccc(CNC3CCCC3)cc2)cc1)C(=O)NO)S(C)(=O)=O` [Compound 264], the MIC MH 10720 came to 1.6 µg/mL (≈ 3.13 µM).
The same measure, in the same setting: to `CC(=O)[C@H](NC(=O)c1ccc(C#Cc2ccc(CNC3CC3)cc2)cc1)C(=O)NO` [Compound 396] belongs 1.6 µg/mL (≈ 3.95 µM); to `CC(C)(O)[C@H](NC(=O)c1ccc(C#Cc2ccc(CN3CCOCC3)s2)cc1)C(=O)NO` [Compound 293], ≤ 0.1 µg/mL.

In the next assay the test system is Pasteurella multocida PM 6267 (P 2225 (L386), reference strain, mouse infection strain). The experiment in a line: MIC, broth-microdilution (CLSI VET01-A4), strain PM 6267. Type of assay: cell-based. The following applies: Pasteurella multocida strain PM 6267, broth-microdilution; unit assumed. The method in brief:
as §1
Compound `COc1ccc(CNCc2ccc(C#Cc3ccc(C(=O)N[C@@H](C(C)=O)C(=O)NO)cc3)cc2)cc1` [Compound 401] gave an MIC PM 6267 of 6.3 µg/mL (≈ 13 µM).
As for `CC(C)([C@H](NC(=O)c1ccc(C#Cc2ccc(CNC3CCCC3)cc2)cc1)C(=O)NO)S(C)(=O)=O` [Compound 264], the MIC PM 6267 amounted to 0.2 µg/mL (≈ 0.391 µM).
Still for that read-out and setting: to `CC(=O)[C@H](NC(=O)c1ccc(C#Cc2ccc(CNC3CC3)cc2)cc1)C(=O)NO` [Compound 396] belongs 12.5 µg/mL (≈ 30.8 µM); to `CC(C)(O)[C@H](NC(=O)c1ccc(C#Cc2ccc(CN3CCOCC3)s2)cc1)C(=O)NO` [Compound 293], 1.6 µg/mL (≈ 3.5 µM).

For a further assay, the system named is Mannheimia haemolytica MH 6374 (ATCC 33396, reference strain). The experiment in a line: MIC, broth-microdilution (CLSI VET01-A4), strain MH 6374. Type of assay: cell-based. The following applies: Mannheimia haemolytica strain MH 6374, broth-microdilution; unit assumed. Put shortly:
as §1
`COc1ccc(CNCc2ccc(C#Cc3ccc(C(=O)N[C@@H](C(C)=O)C(=O)NO)cc3)cc2)cc1` [Compound 401] yielded an MIC MH 6374 of 1.6 µg/mL (≈ 3.3 µM).
On to `CC(C)([C@H](NC(=O)c1ccc(C#Cc2ccc(CNC3CCCC3)cc2)cc1)C(=O)NO)S(C)(=O)=O` [Compound 264], for which the MIC MH 6374 was determined as 12.5 µg/mL (≈ 24.4 µM).
In turn, `CC(=O)[C@H](NC(=O)c1ccc(C#Cc2ccc(CNC3CC3)cc2)cc1)C(=O)NO` [Compound 396] came in with an MIC MH 6374 of 1.6 µg/mL (≈ 3.95 µM).
In turn, `CC(C)(O)[C@H](NC(=O)c1ccc(C#Cc2ccc(CN3CCOCC3)s2)cc1)C(=O)NO` [Compound 293] had an MIC MH 6374 of 0.8 µg/mL (≈ 1.75 µM).

Another assay has as its system Pasteurella multocida PM 12080 (IV102277-0093, BRD field isolate). Briefly: MIC, broth-microdilution (CLSI VET01-A4), strain PM 12080. Type of assay: cell-based. The following applies: Pasteurella multocida strain PM 12080, broth-microdilution; unit assumed. Put shortly:
as §1
The compound `COc1ccc(CNCc2ccc(C#Cc3ccc(C(=O)N[C@@H](C(C)=O)C(=O)NO)cc3)cc2)cc1` [Compound 401] showed an MIC PM 12080 of 0.8 µg/mL (≈ 1.65 µM).
Still for that read-out and setting: the figure for `CC(C)([C@H](NC(=O)c1ccc(C#Cc2ccc(CNC3CCCC3)cc2)cc1)C(=O)NO)S(C)(=O)=O` [Compound 264] is 0.4 µg/mL (≈ 0.782 µM); for `CC(=O)[C@H](NC(=O)c1ccc(C#Cc2ccc(CNC3CC3)cc2)cc1)C(=O)NO` [Compound 396] it is 0.4 µg/mL (≈ 0.987 µM); for `CC(C)(O)[C@H](NC(=O)c1ccc(C#Cc2ccc(CN3CCOCC3)s2)cc1)C(=O)NO` [Compound 293] it is ≤ 0.1 µg/mL.

A further assay has as its system Pasteurella multocida PM 6391 (ATCC 43137, reference strain). Briefly: MIC, broth-microdilution (CLSI VET01-A4), strain PM 6391. Type of assay: cell-based. The conditions noted are these: Pasteurella multocida strain PM 6391, broth-microdilution; unit assumed. Put shortly: as §1
For `COc1ccc(CNCc2ccc(C#Cc3ccc(C(=O)N[C@@H](C(C)=O)C(=O)NO)cc3)cc2)cc1` [Compound 401], the MIC PM 6391 was found to be 0.2 µg/mL (≈ 0.412 µM).
`CC(C)([C@H](NC(=O)c1ccc(C#Cc2ccc(CNC3CCCC3)cc2)cc1)C(=O)NO)S(C)(=O)=O` [Compound 264] displayed an MIC PM 6391 of 0.8 µg/mL (≈ 1.56 µM).
For the compound `CC(=O)[C@H](NC(=O)c1ccc(C#Cc2ccc(CNC3CC3)cc2)cc1)C(=O)NO` [Compound 396], the MIC PM 6391 is ≤ 0.1 µg/mL.
Same read-out and setting: to `CC(C)(O)[C@H](NC(=O)c1ccc(C#Cc2ccc(CN3CCOCC3)s2)cc1)C(=O)NO` [Compound 293] belongs 0.2 µg/mL (≈ 0.437 µM).

Another assay relates to Mannheimia haemolytica MH 12587 (1071, BRD field isolate, macrolide-resistance: erm+, E+). The experiment in a line: MIC, broth-microdilution (CLSI VET01-A4), strain MH 12587. Type of assay: cell-based. The conditions noted are these: Mannheimia haemolytica strain MH 12587, broth-microdilution; unit assumed. The method in brief:
as §1
For `COc1ccc(CNCc2ccc(C#Cc3ccc(C(=O)N[C@@H](C(C)=O)C(=O)NO)cc3)cc2)cc1` [Compound 401], the MIC MH 12587 is 0.4 µg/mL (≈ 0.824 µM).
Still for that read-out and setting: the figure for `CC(C)([C@H](NC(=O)c1ccc(C#Cc2ccc(CNC3CCCC3)cc2)cc1)C(=O)NO)S(C)(=O)=O` [Compound 264] is 12.5 µg/mL (≈ 24.4 µM); for `CC(=O)[C@H](NC(=O)c1ccc(C#Cc2ccc(CNC3CC3)cc2)cc1)C(=O)NO` [Compound 396] it is 0.4 µg/mL (≈ 0.987 µM); for `CC(C)(O)[C@H](NC(=O)c1ccc(C#Cc2ccc(CN3CCOCC3)s2)cc1)C(=O)NO` [Compound 293] it is 0.8 µg/mL (≈ 1.75 µM).

In the next assay the test system is Mannheimia haemolytica MH 13065 (XB0446-6003.9, BRD field isolate). The experiment in a line: MIC, broth-microdilution (CLSI VET01-A4), strain MH 13065. Type of assay: cell-based. The conditions noted are these: Mannheimia haemolytica strain MH 13065, broth-microdilution; unit assumed. The method in brief: as §1
Compound `COc1ccc(CNCc2ccc(C#Cc3ccc(C(=O)N[C@@H](C(C)=O)C(=O)NO)cc3)cc2)cc1` [Compound 401] gave an MIC MH 13065 of 1.6 µg/mL (≈ 3.3 µM).
For `CC(C)([C@H](NC(=O)c1ccc(C#Cc2ccc(CNC3CCCC3)cc2)cc1)C(=O)NO)S(C)(=O)=O` [Compound 264], the MIC MH 13065 amounted to 6.3 µg/mL (≈ 12.3 µM).
The same measure, in the same setting: the figure for `CC(=O)[C@H](NC(=O)c1ccc(C#Cc2ccc(CNC3CC3)cc2)cc1)C(=O)NO` [Compound 396] is 3.1 µg/mL (≈ 7.65 µM); for `CC(C)(O)[C@H](NC(=O)c1ccc(C#Cc2ccc(CN3CCOCC3)s2)cc1)C(=O)NO` [Compound 293] it is 0.4 µg/mL (≈ 0.874 µM).
